Assay results: patent US11166924B2, “N-methyl-d-aspartate receptor allosteric modulators and methods for their use” (Qingdao Primedicine Pharmaceutical Company, Ltd., priority 2016, dated 2021)
Read-outs that look alike come from different tables or passages of the source. Each block holds one molecule with its values, some of them ahead of it.

Assays:
Type in all cases: cell-based
GluN1/GluN2A NMDARs = target: T1, GluN1/GluN2A NMDARs (Rattus norvegicus, UniProt P35439+Q00959); assay: Whole-cell patch clamp recordings in HEK293 cells transfected with GluN1/GluN2A; details: for Enhancement of NMDA-mediated currents: compared to glutamate alone; for Selectivity for GluN1/GluN2A versus GluN1/GluN2B NMDARs: FIG. 2, HEK293 cells expressing GluN1/GluN2A and GluN1/GluN2B; for Normalized Potentiation: positive modulation of GluN1/GluN2A NMDARs, concentration not given
T1 construct: expressed in transfected cells; host or cells: HEK293
How it was run: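 Rat GluN1/GluN2A (1:1) transiently expressed in HEK293, recorded 48 h post-transfection by whole-cell voltage clamp at −60 mV, room temperature. CsCl/BAPTA pipette solution, pH 7.4 bath, glutamate/NMDA-evoked currents by fast perfusion. ≥6 cells per compound; EC50, relative efficacy versus maximal glutamate response and Hill slope from pooled dose-response fits.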

GluN1/GluN2B NMDARs = target: T2, GluN1/GluN2B NMDARs (Rattus norvegicus, UniProt P35439+Q00960); assay: Whole-cell patch clamp recordings in HEK293 cells transfected with GluN1/GluN2B
T2 construct: expressed in transfected cells; host or cells: HEK293

[1] = target: NMDARs in cultured hippocampal neurons (Rattus norvegicus, UniProt P35439+Q00959); assay: Whole-cell voltage clamp recordings of NMDAR currents in cultured hippocampal/cortical neurons
GluN1/GluN2A^Q111A = target: T3, GluN1/GluN2A^Q111A (Rattus norvegicus, UniProt P35439+Q00959, Q111A); assay: Patch clamp in HEK293 cells expressing mutant GluN1/GluN2A Q111A
T3 construct: expressed in transfected cells; host or cells: HEK293
Experimental: (§1) Whole cell patch-clamp recordings were performed under voltage-clamp mode using an Axopatch 200B or 1D patch-clamp amplifier (Molecular Devices). Whole-cell currents were recorded at a holding potential of −60 mV unless indicated elsewhere, and signals were filtered at 2 kHz, digitized at 10 kHz (Digidata 1322A). Recording pipettes (3-5 MΩ) were filled with intracellular solution containing (mM): CsCl 140, HEPES 10, Mg-ATP 4, QX-314 5, pH 7.20; osmolarity, 290-295 mOsm. BAPTA (10 mM) was added in the intracellular solution (unless otherwise specified). The coverslips were continuously superfused with extracellular solution containing (mM): NaCl 140, KCl 5.4, HEPES 10, CaCl2 1.3, glucose 20, pH 7.4; osmolarity, 305-315 mOsm. NMDA-induced currents were applied by NMDA through perfusion fast-step (Warner Instruments). With perfusion fast-step system, NMDA application was achieved by using a two-square barrel glass tubing and depending on the age of the cultured neurons, CNQX (10 μM), TTX (0.5 μM) or BIC (10 μM) were added in the extracellular solution to minimize the activation of ionotropic glutamate receptors and voltage-gated sodium channels, respectively. All experiments were performed at room temperature. Recordings from at least six HEK293 cells/neurons were performed for all active compounds. Data were pooled among HEK293 cells or primary neurons and composite dose-response data were fitted by the equation Percentage Response=100×Relative Efficacy/[1+(EC50/Concentration)nH], where EC50 is the concentration of agonist that produces a half-maximal response, relative efficacy is the response at maximally effective concentration relative to the maximal response of glutamate, and nH is the Hill slope.
(§2) The site-directed mutagenesis of GluN1 or GluN2A subunits were performed by using the QuikChange method (Stratagene). All mutant clones were confirmed by DNA sequencing. Wild-type or mutant subunits were transfected in HEK293 cells and subjected to electrophysiology examinations. […]

GluN1/GluN2A^F177S = target: T4, GluN1/GluN2A^F177S (Rattus norvegicus, UniProt P35439+Q00959, F177S); assay: Patch clamp in HEK293 cells expressing mutant GluN1/GluN2A F177S
T4 construct: expressed in transfected cells; host or cells: HEK293
Experimental: as §1, §2

GluN1/GluN2A^P79A = target: T5, GluN1/GluN2A^P79A (Rattus norvegicus, UniProt P35439+Q00959, P79A); assay: Patch clamp in HEK293 cells expressing mutant GluN1/GluN2A P79A
T5 construct: expressed in transfected cells; host or cells: HEK293
Experimental: as §1, with “Data were pooled among HEK293 cells or primary neurons and composite dose-response data were fitted by the equation Percentage Response=100×Relative Efficacy/[1+(EC50/Concentration)nH], where EC50 is the concentration of agonist that produces a half-maximal response, relative efficacy is the response at maximally effective concentration relative to the maximal response of glutamate, and nH is the Hill slope.” left out

T3 sequence (Q00959 23-1464 Q111A, other chains not shown): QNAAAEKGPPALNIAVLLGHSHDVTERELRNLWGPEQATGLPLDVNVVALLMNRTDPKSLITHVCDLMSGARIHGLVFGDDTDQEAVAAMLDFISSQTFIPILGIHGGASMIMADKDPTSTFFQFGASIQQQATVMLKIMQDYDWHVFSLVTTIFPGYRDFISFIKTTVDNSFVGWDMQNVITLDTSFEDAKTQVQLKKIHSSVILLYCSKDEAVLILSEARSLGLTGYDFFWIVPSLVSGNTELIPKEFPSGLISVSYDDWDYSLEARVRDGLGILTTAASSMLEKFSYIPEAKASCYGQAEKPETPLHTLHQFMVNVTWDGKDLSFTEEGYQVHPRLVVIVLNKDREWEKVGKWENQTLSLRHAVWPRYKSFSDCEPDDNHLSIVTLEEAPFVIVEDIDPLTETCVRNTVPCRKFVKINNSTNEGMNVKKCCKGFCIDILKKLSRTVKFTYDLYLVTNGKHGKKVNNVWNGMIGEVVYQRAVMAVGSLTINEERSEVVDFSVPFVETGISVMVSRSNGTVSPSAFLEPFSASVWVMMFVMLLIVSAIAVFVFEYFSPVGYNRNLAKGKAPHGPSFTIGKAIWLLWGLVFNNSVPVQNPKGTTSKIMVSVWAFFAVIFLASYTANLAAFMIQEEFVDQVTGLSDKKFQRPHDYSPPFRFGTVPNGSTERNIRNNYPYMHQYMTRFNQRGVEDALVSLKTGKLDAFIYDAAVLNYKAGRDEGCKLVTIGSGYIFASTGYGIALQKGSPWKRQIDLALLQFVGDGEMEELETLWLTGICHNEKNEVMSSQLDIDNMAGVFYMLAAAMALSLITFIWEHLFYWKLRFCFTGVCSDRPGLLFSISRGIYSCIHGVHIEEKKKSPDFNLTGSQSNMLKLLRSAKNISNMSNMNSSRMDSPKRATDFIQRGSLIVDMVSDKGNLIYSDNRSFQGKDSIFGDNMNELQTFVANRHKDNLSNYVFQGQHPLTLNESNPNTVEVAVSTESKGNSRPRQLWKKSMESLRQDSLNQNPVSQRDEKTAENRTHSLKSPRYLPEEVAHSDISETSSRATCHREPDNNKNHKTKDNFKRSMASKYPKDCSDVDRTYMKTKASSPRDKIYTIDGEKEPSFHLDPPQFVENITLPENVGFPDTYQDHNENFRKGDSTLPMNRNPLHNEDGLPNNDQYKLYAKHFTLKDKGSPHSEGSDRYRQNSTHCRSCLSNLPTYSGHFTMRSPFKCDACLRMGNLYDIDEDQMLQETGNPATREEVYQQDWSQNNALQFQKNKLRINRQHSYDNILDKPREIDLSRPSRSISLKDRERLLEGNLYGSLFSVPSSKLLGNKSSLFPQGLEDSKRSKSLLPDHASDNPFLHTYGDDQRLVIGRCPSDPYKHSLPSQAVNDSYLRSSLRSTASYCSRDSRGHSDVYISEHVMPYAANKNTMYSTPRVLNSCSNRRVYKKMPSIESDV
T1 sequence (Q00959 23-1464, other chains not shown): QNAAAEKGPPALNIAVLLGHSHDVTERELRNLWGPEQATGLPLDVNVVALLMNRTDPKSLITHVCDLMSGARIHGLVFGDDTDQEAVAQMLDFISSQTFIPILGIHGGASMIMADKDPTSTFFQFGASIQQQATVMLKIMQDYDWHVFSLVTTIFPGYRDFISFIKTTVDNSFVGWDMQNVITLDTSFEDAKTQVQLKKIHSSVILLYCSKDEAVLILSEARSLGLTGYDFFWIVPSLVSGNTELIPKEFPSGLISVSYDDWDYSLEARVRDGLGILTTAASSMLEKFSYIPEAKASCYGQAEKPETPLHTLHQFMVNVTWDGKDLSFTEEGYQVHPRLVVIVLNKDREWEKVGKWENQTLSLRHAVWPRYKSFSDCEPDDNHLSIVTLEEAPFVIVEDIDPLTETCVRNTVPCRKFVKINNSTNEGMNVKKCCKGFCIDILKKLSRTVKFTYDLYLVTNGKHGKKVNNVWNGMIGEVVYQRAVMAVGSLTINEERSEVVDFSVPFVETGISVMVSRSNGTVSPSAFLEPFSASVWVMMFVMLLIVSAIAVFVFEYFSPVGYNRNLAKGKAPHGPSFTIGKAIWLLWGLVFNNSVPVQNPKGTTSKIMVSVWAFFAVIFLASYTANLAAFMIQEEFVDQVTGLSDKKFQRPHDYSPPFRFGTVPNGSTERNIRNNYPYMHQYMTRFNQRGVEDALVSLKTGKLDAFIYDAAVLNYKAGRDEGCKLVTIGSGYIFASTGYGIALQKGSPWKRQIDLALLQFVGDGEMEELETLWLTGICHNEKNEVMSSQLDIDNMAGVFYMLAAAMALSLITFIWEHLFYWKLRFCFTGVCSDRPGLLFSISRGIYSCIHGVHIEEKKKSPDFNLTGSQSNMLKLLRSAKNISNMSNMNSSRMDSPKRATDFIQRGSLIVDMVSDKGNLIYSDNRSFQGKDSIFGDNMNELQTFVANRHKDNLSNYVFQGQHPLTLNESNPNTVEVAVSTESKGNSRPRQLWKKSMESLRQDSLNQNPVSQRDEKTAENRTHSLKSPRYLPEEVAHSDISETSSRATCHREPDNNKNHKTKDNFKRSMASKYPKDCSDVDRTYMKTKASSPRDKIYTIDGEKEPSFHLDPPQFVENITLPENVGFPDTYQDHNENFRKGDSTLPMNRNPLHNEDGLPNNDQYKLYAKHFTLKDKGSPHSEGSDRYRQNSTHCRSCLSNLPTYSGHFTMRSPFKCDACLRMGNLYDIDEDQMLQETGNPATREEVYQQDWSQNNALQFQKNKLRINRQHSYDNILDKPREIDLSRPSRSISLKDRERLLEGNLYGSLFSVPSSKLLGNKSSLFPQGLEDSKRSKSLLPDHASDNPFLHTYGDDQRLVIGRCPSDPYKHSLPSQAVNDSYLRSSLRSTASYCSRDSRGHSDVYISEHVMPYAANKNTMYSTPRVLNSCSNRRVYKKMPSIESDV
Chain of NMDARs in cultured hippocampal neurons (Q00959 23-1464, other chains not shown): as above

Currents induced by compound applied alone (GluN1/GluN2A NMDARs; 100 μM alone): no changes of inward or outward currents | Enhancement of NMDA-mediated currents (GluN1/GluN2A NMDARs; 100 μM co-applied with co-agonists): 38.85±3.70% | Modulation effect, wild-type (GluN1/GluN2A NMDARs; 100 μM, wild-type GluN1/GluN2A, FIG. 8c): 41.75±2.62% | Enhancement of NMDA-mediated currents (GluN1/GluN2A NMDARs; 200 μM co-applied with co-agonists): 71.69±5.03% | Selectivity for GluN1/GluN2A versus GluN1/GluN2B NMDARs (GluN1/GluN2A NMDARs): selective for GluN1/GluN2A NMDARs | Normalized Potentiation (GluN1/GluN2A NMDARs; Table 1): 243.57 ± 24.81% | Currents induced by compound on its own (GluN1/GluN2B NMDARs): did not induce currents on its own | activation at 100 µM (GluN1/GluN2B NMDARs; HEK293, Table 2, 100 μM, read-out: Normalized Potentiation GluN1/GluN2B): -4.82 ± 2.83% | activation at 100 µM ([1]; 100 μM bath, NMDA 5 uM, glycine 2 μM, compared to NMDA control, read-out: Modulation of NMDAR currents): 43 ± 6.55% | Modulation effect, GluN2A Gln111Ala (GluN1/GluN2A^Q111A; 100 μM, FIG. 8c): 30.69±1.60% | Modulation effect, GluN2A Phe177Ser (GluN1/GluN2A^F177S; 100 μM, FIG. 8c): 22.86±1.12%
Structure (SMILES): COc1cccc(/C=N/NC(=O)c2ccccc2C)c1O [Npam02, (E)-N′-(2-hydroxy-3-methoxybenzylidene)-2-methylbenzohydrazide]
Potentiation of NMDAR currents (GluN1/GluN2B NMDARs; 100 μM): did not exhibit potentiation of NMDAR currents | Currents induced by compound on its own [1]: not able to induce inward or outward currents on its own

Structure (SMILES): CCOc1cc(Cl)c(Cl)c(/C=N/NC(=O)c2ccccc2Br)c1O [Npam43, (E)-2-bromo-N′-(2,3-dichloro-5-ethoxy-6-hydroxybenzylidene)benzohydrazide]
Currents evoked by compound on its own (GluN1/GluN2A NMDARs): did not evoke currents on its own | Enhancement of NMDA-mediated currents (GluN1/GluN2A NMDARs; 10 μM co-applied with co-agonists): dramatically enhanced | Selectivity for GluN1/GluN2A versus GluN1/GluN2B NMDARs (GluN1/GluN2A NMDARs): selective for GluN1/GluN2A NMDARs | Normalized Potentiation (GluN1/GluN2A NMDARs; Table 1): 363.52 ± 27.3% | EC50 (GluN1/GluN2A NMDARs; Table 1, potentiation, read-out: EC50): 270 nM | Relative potentiation (GluN1/GluN2A NMDARs; Table 3, GluN1^WT/GluN2A^WT): 209 ± 6.7% | Saturation of enhancement relative to co-agonists alone baseline (GluN1/GluN2A NMDARs; dose-response, FIG. 9): ~350% | EC50 (GluN1/GluN2A NMDARs; dose-response, FIG. 9, read-out: EC50 of enhancement of GluN1/GluN2A currents): 240 ± 50 nM | EC50 (GluN1/GluN2A NMDARs; dose-response, FIG. 9, read-out: pEC50 of enhancement of GluN1/GluN2A currents (converted)): ~243 nM | Potentiation of NMDAR currents (GluN1/GluN2B NMDARs; 10 μM): did not exhibit potentiation | Dose-dependent enhancement of currents (GluN1/GluN2B NMDARs; GluN2B-containing NMDARs recordings): No dose-dependent enhancement of currents | activation at 10 µM ([1]; 10 μM, read-out: Potentiation at saturation point, above control level baseline): 322 ± 27% | Selective potentiation of GluN1/GluN2A NMDARs in hippocampal neurons ([1]; FIG. 12, with ifenprodril, NVP-AAM077, AP5 controls): selectively potentiates GluN1/GluN2A NMDARs | Shift of NMDA dose-response curve ([1]; Npam43 5 μM): shifted left | Net Difference potentiation (GluN1/GluN2A^Q111A; GluN2A Q111A, normalized to Npam43 response in wild-type GluN1/GluN2A): −38.4±0.78% | Relative potentiation (GluN1/GluN2A^Q111A; Table 3, GluN2A Q111A): 129 ± 6.7% | Net Difference potentiation (GluN1/GluN2A^F177S; GluN2A F177S, normalized to wild-type): −61.7 ± 0.03% | Relative potentiation (GluN1/GluN2A^F177S; Table 3, GluN2A F177S): 79.9 ± 2.6% | Relative potentiation (GluN1/GluN2A^P79A; Table 3): 99.3 ± 2.8% | Net Difference potentiation (GluN1/GluN2A^P79A; normalized to wild-type): −52.5 ± 0.20%
